Source: patent publication US20100256145A1, “USE OF KCNQ POTASSIUM CHANNEL OPENERS FOR REDUCING SYMPTOMS OF OR TREATING DISORDERS OR CONDITIONS WHEREIN THE DOPAMINERGIC SYSTEM IS DISRUPTED” (H. LUNDBECK A/S, priority 2007, published 2010)
Marks after values point to notes of the source that are not given here.

Key:
[1] = tested on: immobility in the mouse forced swim test; assay: Mouse forced swim test; assay type: in vivo; conditions: mice, time immobile during last 3 min of 6 min swim, vehicle = 100
Experimental: Subjects. Male NMRI mice (Charles River) weighing 23-25 g are used. […] 8 mice are used pr experimental group.
Experimental procedure. The mice are placed in 2000 ml beaker containing 1200 ml of tempered water (25° C.) and left to swim for 6 min. The performance of the mice is videorecorded, digitalized and analysed by means of a digital analysis system (Bioobserve). The time spent immobile for the last 3 min. of the test session is quantified for each mouse.
Analyses. […] A post-hoc test (Student-Newman-Keuls) is employed when appropriate. P-levels <0.05 were considered significant.

[2] = tested on: extracellular DA levels in the nucleus accumbens; assay: Microdialysis: amphetamine-evoked DA levels in the nucleus accumbens of freely moving rats; assay type: in vivo, rat; conditions: for Normalised DA level in the nucleus accumbens: compound 5 mg/kg s.c., D-amphetamine 0.5 mg/kg s.c. 30 min later; for Effect on the basal extracellular DA level in the nucleus accumbens: without amphetamine, data not shown
Experimental: Subjects. Male Sprague-Dawley rats (Charles River), initially weighing 275-300 g, are used.
Surgery. Animals are anaesthetized with hypnorm/dormicum (2 ml/kg s.c.) and intracerebral guide cannulas (CMA/12) are stereotaxically implanted, positioning the dialysis probe tip in the nucleus accumbens (co-ordinates: 1.7 mm anterior to bregma, −1.2 mm lateral to bregma, 8.0 mm ventral to the dura). Anchor screws and acrylic cement is applied for fixation of the guide cannula. The body temperature of the animals is maintained at 37° C. by means of a rectal probe and a heating plate. The rats are allowed to recover from surgery for 2 days, housed singly in cages.
Experimental procedure. On the day of the experiment, a microdialysis probe (CMA/12, 0.5 mm diameter, 2 mm length) is inserted through the guide cannula of the conscious animal. The probes are connected to a microinjection pump via a dual channel swivel which allowed the animals unrestricted movements. Perfusion of the microdialysis probe with filtered Ringer solution (145 mM NaCl, 3 mM KCl, 1 mM MgCl2, 1.2 mM CaCl2) is maintained for the duration of the experiment at a constant flow rate of 1 μL/min. After 180 min of stabilisation, the experiments are initiated. Dialysates are collected every 20 min. After the experiments the rats are sacrificed by decapitation, their brains removed, frozen and sliced for probe placement verification.
Administration of compounds. […] Thirty minutes later, D-amphetamine sulphate (0.5 mg/kg s.c.) is administered.
Analysis of dialysate. The concentration of DA in the dialysates is assessed by means of HPLC with electrochemical detection. The dialysate constituents are separated by reverse phase liquid chromatography (ODS 150×3 mm, […]). Mobile phase consists of 90 mM NaH2PO4, 50 mM sodium citrate, 367 mg/l sodium 1-octanesulfonic acid, 50 μM EDTA and 8% acetonitrile (pH 4.0) at a flow rate of 0.5 ml/min. Electrochemical detection of DA is accomplished using a coulometric detector; potential set at E1=−75 mV and E2=300 mV (guard cell at 350 mV) (Coulochem II, ESA). The dialysate levels of DA in the three dialyse samples preceding the administration of compound are averaged and used as baseline level of DA (100%)
Statistical analysis. The dialysate levels of DA in the three dialyse samples preceding the administration of compound are averaged and used as baseline level of DA (100%). Data are analysed using repeated measure analyses of variance followed by post hoc tests (Tukey test), when appropriate. *P<0.05 were considered significant.

[3] = tested on: conditioned avoidance response; assay: Conditioned avoidance response in rats; assay type: in vivo, rat; conditions: Rattus norvegicus, sc, rats, read-out: % inhibition of avoidance (Std. dev.) Relative to baseline; for inhibition at 2.5 mg/kg: 2.5 mg/kg s.c. 30 min before the test; for inhibition at 5 mg/kg: 5 mg/kg s.c. 30 min before the test
Experimental: Subjects. Male Wistar rats (Taconic, Denmark) weighing 150 g at the beginning of the study are used. The rats are housed in pairs and maintained on a 12 h light/dark cycle (lights on 06:00). The animals are fed once daily (approx. 6 pellets/rat) in order to keep the rats at 80% of their free-feeding weight. Water is available ad libitum. Temperature (21±1° C.) and relative humidity (55±5%) are automatically controlled.
Experimental procedure. Conditioned avoidance testing is conducted using four automated shuttle-boxes (ENV-010M, MED-Associates) each placed in a sound-attenuated chamber. Each box is divided into two compartments by a partition with an opening. The position of the animal and crossings from one compartment to the other are detected by two photocells placed on either side of the dividing wall. Upon presentation of the conditioned stimuli (CS), tone and light, the animals have 10s to cross to the other compartment of the shuttle-box in order to turn the CS off (end the trial) and avoid the appearance of the unconditioned stimulus (UCS). If the rat remains in the same compartment for more than 10s, the UCS is presented as 0.5 mA scrambled foot-shocks until escape is performed or 10s in maximal duration. The following behavioural variables are evaluated: avoidance (response to CS within 10s); escape (reponse to CS+UCS); escape failures (failure to respond); intertrial crosses and locomotor activity. The rats are habituated to the shuttle-box 3 min before each test session. During training each test session consists of 30 trials with intertrial intervals varying randomly between 20s and 30s. Training is carried out until the rats display an avoidance of 80% or more, on 3 consecutive days. A test is preceded by a pre-test the day before giving rise to a baseline value for each animal, thus the animals serve as their own control. Seven to eight rats are used at each dose level. A parallel control group receiving the vehicle of the test compound is also included.
Administration of compound. […] All compounds are dissolved in a vehicle of 10% 2-hydroxy-propyl-beta-cyclodextrin (isotonic with glucose, pH 5-7).
Statistical analyses. The effects of compounds on avoidance and escape failure behaviours are statistically evaluated by means of two-way repeated measures ANOVA followed by post hoc comparisons (Student-Newman-Keuls Method) when appropriate. P-levels <0.05 are considered statistically significant.

[4] = tested on: dopaminergic neurons in the ventral tegmental area; assay: Spontaneous DA cell firing in the VTA of anaesthetised rats (extracellular single-cell recordings); conditions: mean ± SEM
Experimental: Subjects. Male Wistar rats (Harlan, The Netherlands) weighing 270-340 g are used. The animals are housed under a 12-hr light/dark cycle under controlled conditions for regular in-door temperature (21±2° C.) and humidity (55±5%) with food and tap water available ad libitum.
Administration of compound. […] These i.v. doses match the s.c. dose range of 0-10 mg/kg.
Statistical analysis. Drug effects are assessed by statistical comparison of the mean firing rate calculated from the 2-3 min period immediately before the first drug administration (baseline) to the mean firing rate calculated from at least 60 s at the maximal drug effect. Data are analysed statistically by a one-way analysis of variance (ANOVA) followed by Student-Newman-Keuls post hoc test. A p-value less than 0.05 is considered significant.

[5] = tested on: d-amphetamine induced hyperactivity in rats; assay: Amphetamine-induced hyperactivity in the rat (amphetamine antagonism); assay type: in vivo; conditions: read-out: Amphetamine antagonism ED50 (mg/kg) ± std. dev.
Text: Subjects. Male Wistar rats (Taconic, Denmark) weighing 170-240 g are used. […] Eight rats are used at each dose level and in the parallel control group receiving the vehicle to the test compound plus d-amphetamine and the group receiving vehicle injections only.

[6] = tested on: baseline motility; assay: Baseline motility in mice (vehicle-pretreated, vehicle-challenged); assay type: in vivo, mouse; conditions: s.c., Std. Dev. in brackets
Experimental: Subjects. Male NMRI mice (Charles River) weighing approx. 35 g are used. […] 12 mice are used pr experimental group.
Experimental procedure. All mice are pre-treated once daily for five days with either d-amphetamine sulphate (2.5 mg/kg s.c.) or saline (10 ml/kg). For the 17 days between the last day of pre-treatment and the test day, the animals are kept in their homecage receiving the care as described above. The experiment is performed under normal light conditions in an undisturbed room. The mice are treated with test substance or vehicle and placed individually in the test cages for 30 min. The mice are then challenged with D-amphetamine sulphate (1.25 mg/kg s.c.) or saline (5 ml/kg) and replaced in the test-cage and data acquisition is begun. 5×8 infrared light sources and photocells interspaced by 4 cm monitor the locomotor activity. The light beams cross the cage 1.8 cm above the bottom of the cage.
Administration of compounds.
Data analyses. […] Similarly an ED50 for inhibiting baseline motility is calculated by expressed the motility response in vehicle-pretreated, vehicle-challenged, drug-treated animals relative to the baseline motility response. A therapeutic index value is subsequently calculated by dividing the first ED50 by the second.

[7] = 2.5 mg/kg s.c. 30 min before test
[8] = 5.0 mg/kg s.c. 30 min before test

SMILES | Immobility in % (±S.D.) ([1]; 1.3 mg/kg) | Immobility in % (±S.D.) [1, 7] | Immobility in % (±S.D.) [1, 8] | Normalised DA level in the nucleus accumbens ([2]; Time 0 min (baseline sample)) | Normalised DA level in the nucleus accumbens ([2]; Time 20 min) | Normalised DA level in the nucleus accumbens ([2]; Time 40 min) | Normalised DA level in the nucleus accumbens ([2]; Time 60 min) | Normalised DA level in the nucleus accumbens ([2]; Time 80 min) | Normalised DA level in the nucleus accumbens ([2]; Time 100 min) | Normalised DA level in the nucleus accumbens ([2]; Time 120 min) | Normalised DA level in the nucleus accumbens ([2]; Time 140 min) | Normalised DA level in the nucleus accumbens ([2]; Time −20 min (baseline sample)) | Normalised DA level in the nucleus accumbens ([2]; Time −40 min (baseline sample)) | Effect on the basal extracellular DA level in the nucleus accumbens [2] | inhibition at 2.5 mg/kg [3] | inhibition at 5 mg/kg [3] | Spontaneous DA cell firing rate in the VTA ([4]; cumulated dose 0.03 mg/kg i.v.) | Spontaneous DA cell firing rate in the VTA ([4]; cumulated dose 0.1 mg/kg i.v.) | also measured
Cc1cc(N2CCOCC2)cc(C)c1NC(=O)CC1CCCC1 | 97.5 (6.3) % | 97 (6.7) % | 81.0 (18)* % | 99 ± 4 % of baseline | 125 ± 9 % of baseline | 264 ± 39 % of baseline | 265 ± 17* % of baseline | 231 ± 22 % of baseline | 167 ± 25 % of baseline | 109 ± 11 % of baseline | 93 ± 15 % of baseline | 106 ± 5 % of baseline | 95 ± 6 % of baseline | None of the latter three compounds significantly affects the basal extracellular DA level | 5% | 65% | 95.1 ± 1.9 (4) percentage of baseline firing rate | 88.2 ± 2.8 (5) percentage of baseline firing rate | Spontaneous DA cell firing rate in the VTA ([4]; cumulated dose 0.3 mg/kg i.v.): 74.6 ± 3.6 (4) percentage of baseline firing rate; Spontaneous DA cell firing rate in the VTA ([4]; cumulated dose 0.6 mg/kg i.v.): 64.1 ± 7.1 (2) percentage of baseline firing rate; Spontaneous DA cell firing rate in the VTA ([4]; cumulated dose 0.9 mg/kg i.v.): 55.8 ± 6.5 (2) percentage of baseline firing rate
Cc1cc(N2CCOCC2)cc(C)c1NC(=O)CC(C)(C)C | 102 (4.6) % | 96.7 (7.5) % | 82.3 (20)* % | 91 ± 4 % of baseline | 112 ± 12 % of baseline | 227 ± 46 % of baseline | 262 ± 53* % of baseline | 195 ± 38* % of baseline | 172 ± 24 % of baseline | 166 ± 32 % of baseline | 129 ± 35 % of baseline | 100 ± 3 % of baseline | 108 ± 5 % of baseline | None of the latter three compounds significantly affects the basal extracellular DA level | 1% | 71% | 89.8 ± 4.5 (5) percentage of baseline firing rate | 81.0 ± 4.0 (5) percentage of baseline firing rate | Spontaneous DA cell firing rate in the VTA ([4]; cumulated dose 0.25 mg/kg i.v.): 74.1 ± 6.3 (4) percentage of baseline firing rate; Spontaneous DA cell firing rate in the VTA ([4]; cumulated dose 0.5 mg/kg i.v.): 68.1 ± 6.0 (4) percentage of baseline firing rate; Spontaneous DA cell firing rate in the VTA ([4]; cumulated dose 1.0 mg/kg i.v.): 57.1 ± 7.9 (3) percentage of baseline firing rate
Cc1cc2c(s1)Nc1ccccc1N=C2N1CCN(C)CC1 [Olanzapine, reference compound] | 95 (11) % | – | – | – | – | – | – | – | – | – | – | – | – | – | – | – | – | – | Immobility in % (±S.D.) ([1]; 0.31 mg/kg): 96 (14) %; ED50 [5]: 0.21 mg/kg
CCOC(=O)Nc1ccc(NCc2c(C)cc(C)cc2C)cc1N [[2-Amino-4-(2,4,6-trimethyl-benzylamino)-phenyl]-carbamic acid ethyl ester] | – | – | – | – | – | – | – | – | – | – | – | – | – | – | – | – | – | – | Inhibition of baseline motility, ED50 [6]: 4.3 mg/kg
